Experimental data published in patent US10195198B2, “Methods and compositions for treating diseases and conditions” (Afferent Pharmaceuticals Inc., priority 2014, dated 2019).
“Also recorded” adds a separate entry of the source.

Legend:
[1] = system: carotid sinus nerve; experiment: isolated carotid body/carotid sinus nerve preparation, P2X3 KO mouse (homotrimeric P2X2 mediated responses)
[2] = system: carotid sinus nerve; experiment: isolated carotid body/carotid sinus nerve preparation, wild-type mouse
From the text: FIGS. 1A-1D show the effects of Compound A, a benzyl-diaminopyrimidine P2X3 antagonist which is seen to reduce carotid sinus nerve activity and excitatory responses to hypoxia and ATP (or analogs), in an isolated preparation of carotid body/carotid sinus nerves. […] As shown, the dual P2X3 and P2X2/3 antagonist Compound A attenuates basal tonic firing and hypoxia-induced excitation of carotid sinus afferents in an isolated carotid body preparation of mouse. […] The IC50 is in the range between 10-30 μM.

[3] = system: carotid sinus nerve; experiment: isolated carotid body/carotid sinus nerve preparation, P2X2 KO mouse (homotrimeric P2X3 mediated responses)

Row | Compound | basal tonic firing and hypoxia or ATP-induced excitation of carotid sinus afferents [1] | IC50 ([2]; Mus musculus, wild type preparations, reversible, read-out: IC50 for inhibition of the response of sinus nerve to hypoxia) [µM] | basal tonic firing and hypoxia-induced excitation of carotid sinus afferents ([2]; wild-type mouse isolated carotid body preparation) | basal tonic firing and hypoxia, α,β-MeATP induced excitation of carotid sinus afferents ([3]; P2X2 KO mouse isolated carotid body preparation) | potency compared with wild type ([3]; P2X2 KO mouse, lower concentrations effective)
1 | COc1cc(Cc2cnc(N)nc2N)c(C(C)C)cc1OC [Compound A] | fails to attenuate; also recorded: no longer sensitive to inhibition | 10 to 30 | attenuates; also recorded: attenuation | attenuates | Greater potency; also recorded: more sensitively observed
2 | Cc1nc(N=Nc2ccc(S(=O)(=O)O)cc2S(=O)(=O)O)c(COP(=O)(O)O)c(C=O)c1O [PPADS] | inhibitory activity |  |  |  | 
